Measured values from patent publication US10730857B2, “Benzocyanine compounds” (Pierce Biotechnology, Inc., priority 2011, dated 2020).
Entries after “also recorded” stand apart in the source; their conditions may differ.

Columns and labels:
[1] = test system: rabbit IgG immunoglobulin; assay: Plate functional assay of dye-GAR conjugates; format: binding; conditions: for quenching at 1000 ng/well at 25× (in words): FIG. 14 summary Raw Fluorescence Intensity
Description: Performance of the dye-GAM conjugates, dye-GAR conjugates, and dye-SA conjugates was evaluated in a functional assay. Wells of a 96 white opaque plate or black clear-bottom plate were coated with target proteins mouse IgG immunoglobulin, rabbit IgG immunoglobulin, or biotinylated bovine serum albumin (BBSA). One hundred μl mouse or rabbit IgG, or BBSA at a concentration of 10 μg/ml was applied to the corresponding wells in columns 1 and 2. The target proteins were serially diluted 1:1 from the wells in columns 2 to 11 using 100 μl PBS. One hundred μl of the samples from the wells in column 11 were discarded. One hundred μl PBS was added to the wells in column 12. The plates were incubated overnight at 4° C. and then blocked 2×200 μl with Thermo Scientific SuperBlock® Blocking Buffer. The coated plates were washed 2×200 μl with PBS-Tween and 1×200 μl with PBS. Based on the calculated concentrations, conjugates were diluted 1:250 in PBS, added to the corresponding plates (100 μl/well) and then incubated for one hour in the dark. The plates were washed with 2×200 μl with PBS-Tween and 1×200 μl with PBS and filled with PBS buffer (100 μl/well) prior to scanning the white opaque plates on Tecan Safire using 679 nmexcitation/702 nmemission or scanning the black clear-bottom plates on LiCor Odyssey at 700 channel, to detect fluorescence intensity.

lamin A in U20S cells = assay: Immunofluorescence detection of lamin A in U20S cells (FIG. 20A-C and repeat); format: cell-based
Description: In the indicated experiments, the inventive compounds and commercial dye were evaluated for immunofluorescence in a cell based assay using the following protocol. Frozen U20S cell plates which were stored at −80° C. were thawed for 45 minutes at 50° C. Storage buffer (PBS) was removed and the cells were permeabilized for 15 minutes with 0.1% Triton-X100 in 1×PBS buffer (100 μl/well). The cell plate was blocked for 60 minutes in 2% BSA/PBS-0.1% Triton-X100. Primary antibody, either rat anti-Grp94 (5 μg/ml), mouse anti-lamin A (10 μg/ml), or rabbit anti-lamin B1 (10 μg/ml), diluted in 2% BSA/PBS-0.1% Triton-X100 was added to the plate and incubated for 1 hour at room temperature. Control wells contained only 2% BSA/PBS-0.1% Triton-X100 blocker. After incubation, the antibody solution was removed from the plate and the plate was washed three times with 100 μl/well of PBS-0.5% Tween-20 and one time with 100 μl/well PBS. GARat, GAM, or GAR secondary antibodies labeled with various molar excess of the inventive or commercial compound were diluted to 4 μg/ml in PBS and incubated for 1 hour at room temperature. The plates were washed three times with 100 μl/well of PBST and once with 100 μl/well PBS, and Hoechst (diluted to 0.1 μg/ml in PBS) was added to each well (100 μl/well). The plates were scanned on ArrayScan Plate Reader or ToxInsight Instrument.

[2] = In vivo imaging with dye-labeled anti-CEA antibody; parameters: species or system nu/nu mice; conditions: dye conjugated to mouse anti-CEA antibody; i.v.; predicted results
Description: The inventive compounds are used for in vivo imaging as described in J. Gastrointest Surg (2008) 12:1938-1950. Briefly, human pancreatic cell lines are maintained in media supplemented with penicillin/streptomycin at 37° C. with 5% CO2. Mouse anti-CEA antibody and Control Mouse IgG (in PBS with 0.20% sodium azide) are conjugated to V08-15173. The dye is reconstituted at 10 mg/ml in DMF and then added to the antibody at a 10 molar excess. The reaction is carried out for one hour at room temperature. The samples are then dialyzed against 3×2 L of PBS. The cell lines are plated in 96-well plates at 5×10^4 cells per well. After 48 hours culture in appropriate media, the cells are incubated with 1 μg of V08-15173 labeled anti-CEA antibody or V08-15173-labeled control mouse IgG for four hours at 37° C. The cells are then washed three times with PBS and then imaged with an inverted Nikon De-485 microscope and Spot camera RD.
Surgical procedures and intravital imaging are performed with the animals anesthesized by intramuscular injection of 0.02 ml of 50% ketamine, 38% xylazine and 12 acepromazine maleate. Human pancreatic and colorectal cancer cell lines are harvested by trypsinization and washed twice with serum free medium […]. Cells (1×10^6 in 100 μl of serum-free media) are injected subcutaneously within 30 minutes of harvesting over the right flank in female nu/nu mice between 4-6 weeks of age. Subcutaneous tumors are allowed to grow for 7-14 days until they reached diameter of 1-2 mm prior to the delivery of conjugated antibody. For ASPC-1 implants, the cells are harvested by trypsinization and washed 3× in serum-free media. […]. The cells are resuspended in serum-free media at 5×10^6/ml. A volume of 200 μl of the cell suspension is then injected directly into the peritoneal cavity within 30 minutes of harvesting.
For antibody delivery, one to two weeks after subcutaneous, orthotopic, or intraperitoneal tumor implantation, animals are given intravenous (i.v.) injection of either conjugated anti-CEA or conjugated control IgG antibody diluted in PBS to a final volume of 100 μl. All i.v. injections are done via the tail vein. For the dose-response experiment, the antibody dose is 75 μg. For the in vivo time course, the animals are anesthesized and imaged at 30 min, 1, 2, 6, 24 hours and 8 and 15 days after systemic antibody delivery.
The inventive compounds are used for in vivo imaging as described in J. Gastrointest Surg (2008) 12:1938-1950. Briefly, human pancreatic cell lines are maintained in media supplemented with penicillin/streptomycin at 37° C. with 5% CO2. Mouse anti-CEA antibody and Control Mouse IgG (in PBS with 0.20% sodium azide) are conjugated to 779 Compound 1. […]

[3] = Absorbance/emission spectral properties and fluorescence intensity of the dyes; format: physicochemical; conditions: second property table of Example 6; NHS ester forms
Description: Emission/excitation profiles for inventive and commercial compounds was determined by reconstituting the compounds in DMF at 10 mg/ml and then diluting in PBS buffer pH 7.2 to 10 μg/ml.

## COCC[N+]1=C(/C=C/C=C/C=C2/N(CCCCCC(=O)O)c3ccc4c(S(=O)(=O)[O-])cc(S(=O)(=O)[O-])cc4c3C2(C)C)C(C)(CCCS(=O)(=O)[O-])c2c1ccc1c(S(=O)(=O)[O-])cc(S(=O)(=O)[O-])cc21.[Na+].[Na+].[Na+].[Na+] (centres unmarked) [679 Compound 1/1, 2-{(1E,3E)-5-[3-(5-Carboxypentyl)-1,1-dimethyl-6,8-disulfo-1,3-dihydro-benzo[e]indol-(2E)-ylidene]-penta-1,3-dienyl}-3-(2-methoxy-ethyl)-1-methyl-6,8-disulfo-1-(3-sulfopropyl)-1H-benzo[e]indolium]
[1]
  quenching at 1000 ng/well at 25× (in words): apparent quenching
[1]; LiCOR Odyssey, FIG. 12
  Raw Fluorescence Intensity behaviour at 25× molar excess (in words): saturating at 25×
Lamin A in U20S cells; GAM conjugate 4 μg/ml, 2.5 X molar excess
  Mean Total Intensity, Average, 2.5 X: 29229
Lamin A in U20S cells; GAM conjugate 4 μg/ml, 5.0 X molar excess
  Mean Total Intensity, Average, 5.0 X: 49279
Lamin A in U20S cells; GAM conjugate 4 μg/ml, 7.5 X molar excess
  Mean Total Intensity, Average, 7.5 X: 28782
Lamin A in U20S cells; GAM conjugate 4 μg/ml, 10 X molar excess
  Mean Total Intensity, Average, 10 X: 30098
Lamin A in U20S cells; GAM conjugate 4 μg/ml, 15 X molar excess
  Mean Total Intensity, Average, 15 X: 48071
Lamin A in U20S cells; repeat experiment, no primary antibody, 2.5 X
  Mean Total Intensity, Negative control, 2.5 X: 8711
Lamin A in U20S cells; repeat experiment, no primary antibody, 5 X
  Mean Total Intensity, Negative control, 5 X: 8674
Lamin A in U20S cells; repeat experiment, no primary antibody, 10 X
  Mean Total Intensity, Negative control, 10 X: 20481
Lamin A in U20S cells; repeat experiment, no primary antibody, 15 X
  Mean Total Intensity, Negative control, 15 X: 16277

## COCC[N+]1=C(/C=C/C=C/C=C/C=C2/N(CCCCCC(=O)O)c3ccc4c(S(=O)(=O)[O-])cc(S(=O)(=O)O)cc4c3C2(C)C)C(C)(CCCS(=O)(=O)O)c2c1ccc1c(S(=O)(=O)O)cc(S(=O)(=O)O)cc21 (centres unmarked) [779 Compound 1, 6-((E)-2-((2E,4E,6E)-7-(3-(2-methoxyethyl)-1-methyl-6,8-disulfonato-1-(3-sulfonatopropyl)-1H-benzo[e]indol-3-ium-2-yl)hepta-2,4,6-trien-1-ylidene)-1,1-dimethyl-6,8-disulfonato-1H-benzo[e]indol-3(2H)-yl)hexanoate]
[2]
  Ex vivo analysis of the vital organs: presence of dye predominantly in the liver with some signal detected in the spleen intestines and lungs
  post-experiment surgical exposure: accumulation of dye: accumulation of dye in the liver, bladder, and a region of inflammation in the subcutaneous tissue

## COCCOCCOCCOCC[N+]1=C(/C=C/C=C/C=C2/N(CCOCCOCCOCCOCCC(=O)ON3C(=O)CCC3=O)c3ccc4c(S(=O)(=O)[O-])cc(S(=O)(=O)O)cc4c3C2(C)CCOCCOCCOCCOC)C(C)(CCOCCOCCOCCOC)c2c1ccc1c(S(=O)(=O)O)cc(S(=O)(=O)O)cc21 (centres unmarked) [Compound V08-15173]
[3]
  Em: 706 nm
  Ex: 684 nm
[1]
  quenching at 1000 ng/well at 25× (in words): no apparent quenching
Lamin A in U20S cells; GAM conjugate, 2.5 X molar excess
  S/B 2.5 X: 2.9
Lamin A in U20S cells; GAM conjugate, 5.0 X molar excess
  S/B 5.0 X: 4.9
Lamin A in U20S cells; GAM conjugate, 7.5 X molar excess
  S/B 7.5 X: 6.0
Lamin A in U20S cells; GAM conjugate, 10 X molar excess
  S/B 10 X: 4.9
Lamin A in U20S cells; GAM conjugate, 15 X molar excess
  S/B 15 X: 4.6
Lamin A in U20S cells; GAM conjugates, FIG. 20A-C
  non-specific binding / specificity (in words): a minimal amount of non-specific binding; also recorded: little non-specific binding
Lamin A in U20S cells; no primary antibody, 7.5 X molar excess
  Mean Total Intensity, Negative control, 7.5 X: 7100
Lamin A in U20S cells; repeat experiment, 2.5 X molar excess
  S/B 2.5 X: 9.8
[2]
  Ex vivo analysis of the vital organs: presence of dye predominantly in the liver with some signal detected in the spleen intestines and lungs
  post-experiment surgical exposure: accumulation of dye: accumulation of dye in the liver, bladder, and a region of inflammation in the subcutaneous tissue
